Data as given in patent US20220106271A1, “2-BROMO-6-ALKOXYPHENYL-SUBSTITUTED PYRROLIN-2-ONES AND THEIR USE AS HERBICIDES” (Bayer Aktiengesellschaft, priority 2018, published 2022).

Experiments:
Type in all cases: in vivo
Abutylon threophrasti = assay: Pre-emergence herbicidal effect, greenhouse pot test; details: scored visually after 3 weeks, dosage 320 g/ha printed only in the upper half of Table 2
Source text: (§1) 1. Pre-emergence herbicidal effect and crop plant compatibility Seeds of monocotyledonous and dicotyledonous weed plants and crop plants are laid out in sandy loam soil in wood-fibre pots and covered with soil. The compounds of the invention, formulated in the form of wettable powders (WP) or as emulsion concentrates (EC), are then applied to the surface of the covering soil as aqueous suspension or emulsion at a water application rate equating to 600 to 800 L/ha with addition of 0.2% wetting agent.
(§2) After the treatment, the pots are placed in a greenhouse and kept under good growth conditions for the trial plants. The damage to the test plants is scored visually after a test period of 3 weeks by comparison with untreated controls (herbicidal activity in percent (%): 100% activity=the plants have died, 0% activity=like control plants).

Alopecurus myosuroides [1] = assay: as above; details: 320 g/ha, scored visually after 3 weeks, 100% = plants have died, 0% = like control plants
Source text: as §1, §2

Amaranthus retroflexus = assay: as above; details: scored visually after 3 weeks, dosage 320 g/ha printed only in the upper half of Table 2
Source text: as §1, §2

Cyperus esculentus = assay: as above; details: 320 g/ha, scored visually after 3 weeks, 100% = plants have died, 0% = like control plants
Source text: as §1, §2

Echinochloa crus-galli [2] = assay: as above; details: 320 g/ha, scored visually after 3 weeks, 100% = plants have died, 0% = like control plants
Source text: as §1, §2

Hordeum murinum [3] = assay: as above; details: scored visually after 3 weeks, dosage 320 g/ha printed only in the upper half of Table 2
Source text: as §1, §2

Lolium rigidum [4] = assay: as above; details: 320 g/ha, scored visually after 3 weeks, 100% = plants have died, 0% = like control plants
Source text: as §1, §2

Polygonum convolvulus = assay: as above; details: scored visually after 3 weeks, dosage 320 g/ha printed only in the upper half of Table 2
Source text: as §1, §2

Setaria viridis [5] = assay: as above; details: 320 g/ha, scored visually after 3 weeks, 100% = plants have died, 0% = like control plants
Source text: as §1, §2

Stellaria media = assay: as above; details: scored visually after 3 weeks, dosage 320 g/ha printed only in the upper half of Table 2
Source text: as §1, §2

Veronica persica = assay: as above; details: scored visually after 3 weeks, dosage 320 g/ha printed only in the upper half of Table 2
Source text: as §1, §2

Viola tricolor = assay: as above; details: scored visually after 3 weeks, dosage 320 g/ha printed only in the upper half of Table 2
Source text: as §1, §2

Alopecurus myosuroides [6] = assay: Post-emergence herbicidal effect, greenhouse pot test; details: 80 g/ha, post-emergence at one-leaf stage, assessed visually after about 3 weeks; 100% = plants have died, 0% = like control plants
Procedure: (§3) Seeds of monocotyledonous and dicotyledonous weed and crop plants are laid out in sandy loam soil in wood-fibre pots, covered with soil and cultivated in a greenhouse under good growth conditions. 2 to 3 weeks after sowing, the test plants are treated at the one-leaf stage. The compounds of the invention, formulated in the form of wettable powders (WP) or as emulsion concentrates (EC), are then sprayed onto the green parts of the plants as aqueous suspension or emulsion at a water application rate equating to 600 to 800 L/ha with addition of 0.2% wetting agent. After the test plants have been left to stand in the greenhouse under optimal growth conditions for about 3 weeks, the action of the preparations is assessed visually in comparison to untreated controls (herbicidal action in percent (%): 100% activity=the plants have died, 0% activity=like control plants).

Avena fatua [7] = assay: as above; details: 80 g/ha, post-emergence at one-leaf stage, assessed visually after about 3 weeks; 100% = plants have died, 0% = like control plants
Procedure: as §3

Echinochloa crus-galli [8] = assay: as above; details: 80 g/ha, post-emergence at one-leaf stage, assessed visually after about 3 weeks; 100% = plants have died, 0% = like control plants
Procedure: as §3

Hordeum murinum [9] = assay: as above; details: 80 g/ha, post-emergence at one-leaf stage, assessed visually after about 3 weeks; 100% = plants have died, 0% = like control plants
Procedure: as §3

Lolium rigidum [10] = assay: as above; details: 80 g/ha, post-emergence at one-leaf stage, assessed visually after about 3 weeks; 100% = plants have died, 0% = like control plants
Procedure: as §3

Setaria viridis [11] = assay: as above; details: 80 g/ha, post-emergence at one-leaf stage, assessed visually after about 3 weeks; 100% = plants have died, 0% = like control plants
Procedure: as §3

Avena fatua [12] = assay: Pre-emergence herbicidal effect, greenhouse pot test; details: 320 g/ha, scored visually after 3 weeks, 100% = plants have died, 0% = like control plants
Source text: as §1, §2

Compound	Pre-emergence action ABUTH (herbicidal activity in percent) (Abutylon threophrasti)	Pre-emergence action ALOMY (herbicidal activity in percent) (Alopecurus myosuroides [1])	Pre-emergence action AMARE (herbicidal activity in percent) (Amaranthus retroflexus)	Pre-emergence action CYPES (herbicidal activity in percent) (Cyperus esculentus)	Pre-emergence action ECHCG (herbicidal activity in percent) (Echinochloa crus-galli [2])	Pre-emergence action HORMU (herbicidal activity in percent) (Hordeum murinum [3])	Pre-emergence action LOLRI (herbicidal activity in percent) (Lolium rigidum [4])	Pre-emergence action POLCO (herbicidal activity in percent) (Polygonum convolvulus)	Pre-emergence action SETVI (herbicidal activity in percent) (Setaria viridis [5])	Pre-emergence action STEME (herbicidal activity in percent) (Stellaria media)	Pre-emergence action VERPE (herbicidal activity in percent) (Veronica persica)	Pre-emergence action VIOTR (herbicidal activity in percent) (Viola tricolor)	Post-emergence action ALOMY (herbicidal action in percent) (Alopecurus myosuroides [6])	Post-emergence action AVEFA (herbicidal action in percent) (Avena fatua [7])	Post-emergence action ECHCG (herbicidal action in percent) (Echinochloa crus-galli [8])	Post-emergence action HORMU (herbicidal action in percent) (Hordeum murinum [9])	Post-emergence action LOLRI (herbicidal action in percent) (Lolium rigidum [10])	Post-emergence action SETVI (herbicidal action in percent) (Setaria viridis [11])	Pre-emergence action AVEFA (herbicidal activity in percent) (Avena fatua [12])
CC#Cc1cc(Br)c(C2=C(O)C3(CCC(OC)CC3)NC2=O)c(OC)c1 (single isomer, unassigned) [Example 1.1, 3-[2-Bromo-6-methoxy-4-(prop-1-yn-1-yl)phenyl]-4-hydroxy-8-methoxy-1-azaspiro[4.5]dec-3-en-2-one]	100%	100%	100%	100%	100%	100%	100%	100%	100%	100%	100%	100%	90%	100%	100%	100%	100%	90%	
CC#Cc1cc(Br)c(C2=C(O)C3(CCC(OC)CC3)NC2=O)c(OC)c1 (single isomer, unassigned) [Example 1.2]	100%	100%	100%	100%	100%	100%	100%	100%	100%	100%	100%	100%	90%	90%	100%	100%	90%	90%	100%
CC#Cc1cc(Br)c(C2=C(OC(=O)OCC)C3(CCC(OC)CC3)NC2=O)c(OC)c1 (stereo not drawn) [Example 1.3, 3-[2-Bromo-6-methoxy-4-(prop-1-yn-1-yl)phenyl]-8-methoxy-2-oxo-1-azaspiro[4.5]dec-3-en-4-yl ethyl carbonate]	100%	100%	100%	100%	100%	100%	100%	100%	100%	100%	100%	100%	90%	90%	100%	100%	100%	90%	100%
CC#Cc1cc(Br)c(C2=C(OC(=O)C(C)C)C3(CCC(OC)CC3)NC2=O)c(OC)c1 (stereo not drawn) [Example 1.4]	100%	100%	100%	100%	100%	100%	100%	100%	100%	100%	100%	100%	90%	90%	90%	100%	100%	90%	100%
